Results published in US20100099564A1, “HERBICIDE COMBINATION COMPRISING DIMETHOXYTRIAZINYL-SUBSTITUTED DIFLUOROMETHANESULFONYLANILIDES” (BAYER CROPSCIENCE AG, priority 2008, published 2010).
Like-named read-outs stand apart in the source and are kept apart here.

Assays:
Type in all cases: in vivo
[1] = tested on: Triticum aestivum (TRZAS); test: Post-emergence action, greenhouse pot test, visual scoring: TRZAS; conditions: Triticum aestivum, post-emergence, read-out: % activity found; for plant injury at 200 g/ha: B 200 g of ai/ha
Description: (§1) Seeds or rhizome pieces of mono- and dicotyledonous harmful and useful plants were placed in peat pots (diameter 4 cm) filled with sandy loam and then covered with soil. The pots were kept in a greenhouse under optimum conditions. In addition, harmful plants encountered in paddy rice cultivation were cultivated in pots with a water level 2 cm above the soil surface.
(§2) About three weeks after the start of the cultivation, the test plants were treated at the 2- to 3-leaf stage. The herbicides, formulated as powder or liquid concentrates, were, either alone or in the combinations according to the invention, sprayed in various dosages on to the green parts of the plants using an application rate of 600 l of water/ha (converted). For further cultivation of the plants, the pots were then again kept under optimum conditions in a greenhouse.
(§3) The visual scoring of the herbicidal effects was carried out in intervals up to 21 days after the treatment. Scoring was carried out in percent in comparison to the untreated control plants. 0%=no herbicidal activity, 100%=complete herbicidal activity=complete kill.
(§4) The percentages from the treatments with the herbicides alone (=individual application) and with the combinations according to the invention (=mixtures) were employed to calculate interactions using the method of Colby. When the observed efficacies of the mixtures exceed the formal sum of the values of the tests with individual applications, they also exceed the expected value according to Colby, which is calculated using the formula below (cf. S. R. Colby; in Weeds 15 (1967) pp. 20 to 22):
(§5) Here: • A, B=activity of components A and B in percent at a dosage of a and b g of ai/ha (=gramm of active substance per hectare), respectively. • E=expected value in % at a dosage of a+b g of ai/ha.
(§6) The combinations according to the invention of herbicides from group (A) with herbicides from group (B) were tested on a broad spectrum of important harmful plants (weed grasses, broad-leaved weeds/Cyperaceae) and useful plants: Triticum aestivum (TRZAS), Stellaria media (STEME), Lolium multiflorum (LOLMU), Veronica persica (VERPE), Alopecurus myosuroides (ALOMY), Matricaria inodora (MATIN), Brassica napus (BRSNW), Viola tricolor (VIOTR), Avena fatua (AVEFA), Amaranthus retroflexus (AMARE), Zea mays (ZEAMX), Pharbitis purpurea (PHBPU), Setaria viridis (SETVI), Fallopia (ex Polygonum) convolvulus (POLCO), Echinochloa crusgaffi (ECHCG), Abuthilon theophrasti (ABUTH), Cyperus esculentus (CYPES), Oryza sativa (ORYSA).
(§7) Of particular interest are the results shown in the tables (Tab.) below, where the following key is used: • (1) EPPO code (former Bayer code) for the treated plant (see above) • (2) Time of scoring: DAT (days after treatment) • (3) Component A tested (identifying number) • (4) Component B tested (identifying number) • (5) Dosage component A [g of ai/ha] • (6) Dosage component B [g of ai/ha] • (7) % activity found • (8) E value (calculated according to Colby; see above) • (9) Comments: “SYNERGY” =synergistic interaction (E value<% activity found); “SAFENING”=safener action on useful plant (E value>% activity found)

Stellaria media (STEME) = test: Post-emergence action, greenhouse pot test, visual scoring: STEME; conditions: 10 DAT
Description: as §1, §2, §3, §4, §5, §6, §7

[2] = tested on: Matricaria inodora (MATIN); test: Post-emergence action, greenhouse pot test, visual scoring: MATIN
Description: as §1, §2, §3, §4, §5

Viola tricolor (VIOTR) = test: Post-emergence action, greenhouse pot test, visual scoring: VIOTR
Description: as §1, §2, §3, §4, §5, §6, §7

Avena fatua (AVEFA) = test: Post-emergence action, greenhouse pot test, visual scoring: AVEFA
Description: as §1, §2, §3, §4, §5, §6, §7

Zea mays (ZEAMX) = test: Post-emergence action, greenhouse pot test, visual scoring: ZEAMX; conditions: Zea mays, post-emergence, read-out: % activity found; for plant injury at 200 g/ha: B 200 g of ai/ha
Description: as §1, §2, §3, §4, §5, §6, §7

[3] = tested on: Pharbitis purpurea (PHBPU); test: Post-emergence action, greenhouse pot test, visual scoring: PHBPU; conditions: 21 DAT
Description: as §1, §2, §3, §4, §5, §6, §7

Setaria viridis (SETVI) = test: Post-emergence action, greenhouse pot test, visual scoring: SETVI; conditions: Setaria viridis, post-emergence, 504 h; 21 DAT, B 200 g of ai/ha; read-out: % activity found
Description: as §1, §2, §3, §4, §5, §6, §7

[4] = tested on: Fallopia (ex Polygonum) convolvulus (POLCO); test: Post-emergence action, greenhouse pot test, visual scoring: POLCO; conditions: 21 DAT
Description: as §1, §2, §3, §4, §5, §6, §7

[5] = tested on: Abuthilon theophrasti (ABUTH); test: Post-emergence action, greenhouse pot test, visual scoring: ABUTH; conditions: 21 DAT
Description: as §1, §2, §3, §4, §5, §6, §7

[6] = tested on: Cyperus esculentus (CYPES); test: Post-emergence action, greenhouse pot test, visual scoring: CYPES; conditions: 21 DAT
Description: as §1, §2, §3, §4, §5

Oryza sativa (ORYSA) = test: Post-emergence action, greenhouse pot test, visual scoring: ORYSA; conditions: Oryza sativa, post-emergence, 504 h; 21 DAT, B 600 g of ai/ha; read-out: % activity found
Description: as §1, §2, §3, §4, §5, §6, §7

Veronica persica (VERPE) = test: Post-emergence action, greenhouse pot test, visual scoring: VERPE
Description: as §1, §2, §3, §4, §5, §6, §7

[7] = tested on: Alopecurus myosuroides (ALOMY); test: Post-emergence action, greenhouse pot test, visual scoring: ALOMY; conditions: Alopecurus myosuroides, post-emergence, 240 h; 10 DAT, B 100 g of ai/ha; read-out: % activity found
Description: as §1, §2, §3, §4, §5

[8] = tested on: Amaranthus retroflexus (AMARE); test: Post-emergence action, greenhouse pot test, visual scoring: AMARE; conditions: 21 DAT; dose (6) 300
Description: as §1, §2, §3, §4, §5

CN(C(=O)COc1nc2ccccc2s1)c1ccccc1 [B3-4, 2-(2-benzothiazolyloxy)-N-methyl-N-phenylacetamide]
plant injury at 200 g/ha ([1]; 240 h, 10 DAT): 10% | plant injury at 200 g/ha ([1]; 504 h, 21 DAT): 0% | % activity found (Stellaria media (STEME); B 200 g of ai/ha): 10% | % activity found ([2]; 10 DAT, B 200 g of ai/ha): 0% | % activity found ([2]; 10 DAT, B 600 g of ai/ha): 0% | % activity found ([2]; 21 DAT, B 200 g of ai/ha): 0% | % activity found ([2]; 21 DAT, B 600 g of ai/ha): 20% | % activity found (Viola tricolor (VIOTR); 10 DAT, B 200 g of ai/ha): 0% | % activity found (Viola tricolor (VIOTR); 10 DAT, B 600 g of ai/ha): 0% | % activity found (Avena fatua (AVEFA); 21 DAT, B 200 g of ai/ha): 0% | plant injury at 200 g/ha (Zea mays (ZEAMX); 240 h, 10 DAT): 0% | plant injury at 200 g/ha (Zea mays (ZEAMX); 504 h, 21 DAT): 0% | plant injury at 600 g/ha (Zea mays (ZEAMX); 504 h, 21 DAT, B 600 g of ai/ha): 10% | % activity found ([3]; B 200 g of ai/ha): 0% | pest or weed control at 200 g/ha (Setaria viridis (SETVI)): 30% | % activity found ([4]; B 200 g of ai/ha): 0% | % activity found ([4]; B 600 g of ai/ha): 0% | % activity found ([5]; B 200 g of ai/ha): 0% | % activity found ([5]; B 600 g of ai/ha): 0% | % activity found ([6]; B 200 g of ai/ha): 0% | % activity found ([6]; B 600 g of ai/ha): 0% | plant injury at 600 g/ha (Oryza sativa (ORYSA)): 20%

CCCOCCN(C(=O)CCl)c1c(CC)cccc1CC [B4-8, 2-chloro-N-(2,6-diethylphenyl)-N-(2-propoxyethyl)acetamide]
plant injury at 300 g/ha ([1]; 240 h, 10 DAT, B 300 g of ai/ha): 10% | % activity found (Stellaria media (STEME); dose (6) 100): 10% | % activity found (Stellaria media (STEME); dose (6) 300): 10% | % activity found (Veronica persica (VERPE); 10 DAT, dose (6) 100): 0% | % activity found (Veronica persica (VERPE); 10 DAT, dose (6) 300): 0% | % activity found (Veronica persica (VERPE); 21 DAT, dose (6) 100): 0% | % activity found (Veronica persica (VERPE); 21 DAT, dose (6) 300): 0% | pest or weed control at 100 g/ha [7]: 10% | % activity found ([2]; 10 DAT, dose (6) 100): 0% | % activity found ([2]; 21 DAT, dose (6) 100): 0% | % activity found (Viola tricolor (VIOTR); 21 DAT, dose (6) 100): 10% | % activity found (Avena fatua (AVEFA); 10 DAT, dose (6) 100): 0% | % activity found (Avena fatua (AVEFA); 21 DAT, dose (6) 100): 0% | % activity found (Avena fatua (AVEFA); 21 DAT, dose (6) 300): 30% | % activity found [8]: 20% | % activity found ([3]; dose (6) 100): 0% | % activity found ([3]; dose (6) 300): 0% | % activity found ([4]; dose (6) 100): 0% | % activity found ([4]; dose (6) 300): 20% | % activity found ([5]; dose (6) 100): 0% | % activity found ([5]; dose (6) 300): 0% | % activity found ([6]; dose (6) 100): 0% | % activity found ([6]; dose (6) 300): 0%
